One data set concerns the target T1, GSK-3β (AA 1-420) (Homo sapiens, UniProt P49841).
T1 construct: GSK-3β (AA 1-420)
Nature of the data set: Ki determination for the inhibition of GSK-3 (coupled enzyme system). It counts as biochemical. As to conditions: 20 μM ATP, 300 μM peptide, 20 nM GSK-3β, 30° C. The method, boiled down: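 Pyruvate kinase/lactate dehydrogenase-coupled NADH assay with 20 nM GSK-3β (AA 1-420), 20 μM ATP, 300 μM phosphopeptide HSSPHQS(PO3H2)EDEEE in HEPES pH 7.5, 1.5% DMSO, 30 °C. Compound (12 points, 0.002–30 μM) preincubated 10 min before ATP start; Ki derived from 10-min rates versus inhibitor concentration.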

For another data set, the target named is T2, Aurora-2 (Homo sapiens, UniProt O14965).
T2 sequence (O14965 1-403): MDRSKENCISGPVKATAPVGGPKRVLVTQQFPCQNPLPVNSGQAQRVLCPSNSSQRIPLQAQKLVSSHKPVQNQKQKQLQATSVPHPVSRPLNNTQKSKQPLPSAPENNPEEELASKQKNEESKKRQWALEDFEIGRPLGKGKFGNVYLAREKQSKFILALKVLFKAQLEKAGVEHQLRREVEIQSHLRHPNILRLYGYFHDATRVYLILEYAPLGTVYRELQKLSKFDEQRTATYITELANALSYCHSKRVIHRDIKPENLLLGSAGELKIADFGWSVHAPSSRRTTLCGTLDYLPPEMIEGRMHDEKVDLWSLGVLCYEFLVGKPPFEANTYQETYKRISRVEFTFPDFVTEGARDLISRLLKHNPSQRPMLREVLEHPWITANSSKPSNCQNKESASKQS
Nature of the data set: Ki determination for the inhibition of Aurora-2 (coupled enzyme assay). It counts as biochemical. The note with it: 70 nM Aurora-2, peptide LRRASLG, 30° C. The method, boiled down: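 Ki came from reaction rates plotted against inhibitor concentration, with rates taken as A340 decrease over 5 min at 30° C. Enzyme (70 nM final) was added after 10 min compound preincubation; stock buffer held […], 800 μM LRRASLG, PK/LDH coupling, pH 7.5.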

T1 sequence (P49841 whole entry, the tested form may be a part): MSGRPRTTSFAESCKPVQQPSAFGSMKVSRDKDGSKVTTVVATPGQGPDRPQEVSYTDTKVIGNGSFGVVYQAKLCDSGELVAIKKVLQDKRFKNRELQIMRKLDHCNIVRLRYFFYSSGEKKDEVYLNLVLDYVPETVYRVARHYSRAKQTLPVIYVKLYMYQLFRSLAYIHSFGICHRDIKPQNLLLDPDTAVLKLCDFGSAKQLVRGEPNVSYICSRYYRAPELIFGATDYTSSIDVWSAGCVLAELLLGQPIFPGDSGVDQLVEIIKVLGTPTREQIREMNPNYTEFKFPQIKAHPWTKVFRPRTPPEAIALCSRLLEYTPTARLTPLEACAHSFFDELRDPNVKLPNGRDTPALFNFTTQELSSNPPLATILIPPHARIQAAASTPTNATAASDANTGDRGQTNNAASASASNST

Broadly, the Ki is the equilibrium dissociation constant of an inhibitor or competing ligand from its target. Low readings indicate higher affinity, high ones lower affinity. Usually melting point stands for the temperature of the solid-liquid transition. `Cc1cc(Nc2cc(-c3ccccc3)nc3ccccc23)n[nH]1` [Compound V-4, (5-Methyl-2H-pyrazol-3-yl)-(2-phenyl-quinolin-4-yl)-amine] gave a melting point of 242 to 244 °C. The compound also had a Ki at GSK-3β (AA 1-420) of 1000 to 20000 nM. In addition, the Ki on Aurora-2 lay in the range of 100 to 1000 nM.

`Cc1cc(Nc2n[nH]c3ccccc23)nc(-c2ccccc2C(F)(F)F)n1` [II-19, (1H-Indazol-3-yl)-[6-methyl-2-(2-trifluoromethyl-phenyl)-pyrimidin-4-yl]-amine] gave a melting point of 235 to 237 °C. This compound came in with a Ki at GSK-3β (AA 1-420) of under 100 nM. Besides, the Ki on Aurora-2 lay in the range of 1000 to 20000 nM.

Regarding `Cc1nc(-c2ccccc2C(F)(F)F)nc(Nc2n[nH]c3ccccc23)c1C` [II-24, [5,6-Dimethyl-2-(2-trifluoromethyl-phenyl)-pyrimidin-4-yl]-(1H-indazol-3-yl)-amine], the melting point fell in the range of 183 to 186 °C. Also, the Ki at GSK-3β (AA 1-420) is under 100 nM.

As to `Cc1nc(-c2ccccc2C(F)(F)F)nc(Nc2n[nH]c3ccc(F)cc23)c1C` [II-25, [5,6-Dimethyl-2-(2-trifluoromethyl-phenyl)-pyrimidin-4-yl]-(5-fluoro-1H-indazol-3-yl)-amine], the melting point fell in the range of 160 to 163 °C. Also, the Ki on GSK-3β (AA 1-420) was under 100 nM.

`Nc1ccc2[nH]nc(Nc3nc(-c4ccccc4C(F)(F)F)nc4ccccc34)c2c1` [II-73, (5-Amino-1H-indazol-3-yl)-[2-(2-trifluoromethyl-phenyl)-quinazolin-4-yl]-amine] registered a melting point of 221 to 223 °C. Further, the Ki at GSK-3β (AA 1-420) was under 100 nM.

As for `Cc1cc(Nc2nc(-c3ccc(C(C)(C)C)cc3)nc3ccccc23)[nH]n1` [III-41, [2-(4-tert-Butylphenyl)-quinazolin-4-yl]-(5-methyl-2H-pyrazol-3-yl)-amine], the melting point was over 300 °C. Besides, at GSK-3β (AA 1-420), the Ki lay in the range of 100 to 1000 nM. Besides, on Aurora-2, the inhibition constant (Ki) is under 100 nM.

Compound `Cc1cc(Nc2nc(-c3cccc(Oc4ccccc4)c3)nc3ccccc23)[nH]n1` [III-60, (5-Methyl-2H-pyrazol-3-yl)-[2-(3-phenoxyphenyl)-quinazolin-4-yl]-amine] displayed a melting point of 231 to 232 °C. On GSK-3β (AA 1-420), this compound gave a Ki of under 100 nM. The inhibition constant (Ki) at Aurora-2 is under 100 nM.

The compound `c1ccc(Oc2cccc(-c3nc(Nc4cc(C5CC5)n[nH]4)c4ccccc4n3)c2)cc1` [III-61, (5-Cyclopropyl-2H-pyrazol-3-yl)-[2-(3-phenoxyphenyl)-quinazolin-4-yl]-amine] had a melting point of 193 to 195 °C. On GSK-3β (AA 1-420), this compound came in with a Ki of under 100 nM. This compound came in with a Ki on Aurora-2 of under 100 nM.

`c1ccc2c(Nc3ccn[nH]3)nc(-c3ccncc3)nc2c1` [III-64, (2H-Pyrazol-3-yl)-(2-pyridin-4-yl-quinazolin-4-yl)-amine] displayed a melting point of 285 to 286 °C. In addition, on GSK-3β (AA 1-420), the Ki is 100 to 1000 nM. The Ki on Aurora-2 lay within 100 to 1000 nM.

As for `CC(C)c1cc(Nc2nc(-c3ccccc3)nc3ccccc23)[nH]n1` [III-67, (5-Isopropyl-2H-pyrazol-3-yl)-(2-phenyl-quinazolin-4-yl)-amine], the melting point lay within 218 to 219 °C. At GSK-3β (AA 1-420), this compound displayed a Ki of under 100 nM. This compound also registered a Ki at Aurora-2 of under 100 nM.

On to `CC(C)(C)c1cc(Nc2nc(-c3ccccc3)nc3ccccc23)[nH]n1` [III-68, (5-tert-Butyl-2H-pyrazol-3-yl)-(2-phenyl-quinazolin-4-yl)-amine], for which the melting point lay within 136 to 137 °C. Moreover, the inhibition constant Ki on GSK-3β (AA 1-420) lay within 1000 to 20000 nM. Also, the Ki at Aurora-2 fell in the range of 1000 to 20000 nM.

For the compound `c1ccc(-c2cc(Nc3nc(-c4ccccc4)nc4ccccc34)[nH]n2)cc1` [III-71, (5-Phenyl-2H-pyrazol-3-yl)-(2-phenyl-quinazolin-4-yl)-amine], the melting point is 207 to 209 °C. The same compound registered an inhibitory constant (Ki) on GSK-3β (AA 1-420) of 100 to 1000 nM. The compound also displayed a Ki at Aurora-2 of 100 to 1000 nM.

For `COC(=O)c1cc(Nc2nc(-c3ccccc3)nc3ccccc23)[nH]n1` [III-73, (5-Methoxycarbonyl-2H-pyrazol-3-yl)-(2-phenyl-quinazolin-4-yl)-amine], the melting point lay in the range of 271 to 273 °C. The compound also gave a Ki at GSK-3β (AA 1-420) of under 100 nM. Further, the Ki at Aurora-2 was 100 to 1000 nM.

In turn, `OCc1cc(Nc2nc(-c3ccccc3)nc3ccccc23)[nH]n1` [III-74, (5-Hydroxymethyl-2H-pyrazol-3-yl)-(2-phenyl-quinazolin-4-yl)-amine] returned a melting point of 238 to 239 °C. This compound had a Ki at GSK-3β (AA 1-420) of 100 to 1000 nM. At Aurora-2, the inhibition constant Ki was 100 to 1000 nM.

The compound `COCc1cc(Nc2nc(-c3ccccc3)nc3ccccc23)[nH]n1` [III-75, (5-Methoxymethyl-2H-pyrazol-3-yl)-(2-phenyl-quinazolin-4-yl)-amine] registered a melting point of 190 to 191 °C. On GSK-3β (AA 1-420), this compound came in with a Ki of under 100 nM. In addition, the inhibitory constant (Ki) on Aurora-2 is 100 to 1000 nM.

For the compound `COCCCc1cc(Nc2nc(-c3ccccc3)nc3ccccc23)[nH]n1` [III-77, [-(3-Methoxyprop-1-yl)-2H-pyrazol-3-yl]-(2-phenyl-quinazolin-4-yl)-amine], the melting point lay in the range of 169 to 170 °C. Also, the Ki on GSK-3β (AA 1-420) is under 100 nM. Further, the Ki at Aurora-2 was under 100 nM.

In turn, `CC(C)(C)OC(=O)NCCCc1cc(Nc2nc(-c3ccccc3)nc3ccccc23)[nH]n1` [III-80, [5-(3-tert-Butoxycarbonylaminoprop-1-yl)-2H-pyrazol-3-yl]-(2-phenyl-quinazolin-4-yl)-amine] yielded a melting point of 199 to 200 °C. The same compound showed a Ki on Aurora-2 of under 100 nM.

Turning to `Brc1cn[nH]c1Nc1nc(-c2ccccc2)nc2ccccc12` [III-101, (4-Bromo-2H-pyrazol-3-yl)-(2-phenyl-quinazolin-4-yl)-amine], the melting point came out at 189 °C. In addition, the Ki at GSK-3β (AA 1-420) is 1000 to 20000 nM. Also, the inhibition constant (Ki) at Aurora-2 was 1000 to 20000 nM.

On to `Cc1n[nH]c(Nc2nc(-c3ccccc3)nc3ccccc23)c1Br` [III-102, (4-Bromo-5-methyl-2H-pyrazol-3-yl)-(2-phenyl-quinazolin-4-yl)-amine], for which the melting point was 183 to 185 °C. This compound also came in with a Ki on GSK-3β (AA 1-420) of 100 to 1000 nM. The same compound had a Ki on Aurora-2 of 100 to 1000 nM.

As to `N#Cc1cn[nH]c1Nc1nc(-c2ccccc2)nc2ccccc12` [III-103, (4-Cyano-2H-pyrazol-3-yl)-(2-phenyl-quinazolin-4-yl)-amine], the melting point is over 250 °C. The compound further showed a Ki on GSK-3β (AA 1-420) of 1000 to 20000 nM. At Aurora-2, this compound registered an inhibition constant Ki of 1000 to 20000 nM.

Compound `Cc1cc(Nc2nc(N3CCNCC3)nc3ccccc23)[nH]n1` [III-105, (5-Methyl-2H-pyrazol-3-yl)-(2-piperazin-1-yl-quinazolin-4-yl)-amine] returned a melting point of 179 to 181 °C. Besides, at GSK-3β (AA 1-420), the Ki lay in the range of 100 to 1000 nM. In addition, at Aurora-2, the Ki was 100 to 1000 nM.

As to `Cc1cc(Nc2nc(N3CCC(N4CCCC4)CC3)nc3ccccc23)[nH]n1` [III-113], the melting point was found to be 191 °C. The same compound gave an inhibitory constant (Ki) on Aurora-2 of 100 to 1000 nM.

The compound `Cc1cc(Nc2nc(-c3ccccc3)nc3cnccc23)n[nH]1` [IV-30, (5-Methyl-2H-pyrazol-3-yl)-(2-phenyl-pyrido[3,4-d]pyrimidin-4-yl)-amine] showed a melting point of 225 °C.

Consider `Cc1cc(Nc2nc(-c3ccccc3)nc3ncccc23)n[nH]1` [IV-31, (5-Methyl-2H-pyrazol-3-yl)-(2-phenyl-pyrido[2,3-d]pyrimidin-4-yl)-amine], for which the melting point was determined as 234 °C.

On to `c1ccc(-c2nc(Nc3cc(C4CC4)[nH]n3)c3ccncc3n2)cc1` [IV-32, (5-Cyclopropyl-2H-pyrazol-3-yl)-(2-phenyl-pyrido[3,4-d]pyrimidin-4-yl)-amine], for which the melting point was in the range of 232 to 233 °C.

(Values after patent US6610677B2, “Pyrazole compounds useful as protein kinase inhibitors” (Vertex Pharmaceuticals Incorporated, priority 2000, dated 2003).)
